biological target: T1, full length human wildtype Btk (Homo sapiens, UniProt Q06187); assay: Biochemical Btk Kinase Assay (Example 901); conditions: read-out: BTK LC3K (Ki)
T1 construct: V5 (C); 6xHis (C); made in house; host or cells: Sf9 cells (baculovirus, pFastBac)
Procedure: Formula I compounds were tested by a standard biochemical Btk, Kinase Assay (Example 901). A generalized procedure for a standard biochemical Btk, Kinase Assay that can be used to test Formula I compounds is as follows. A master mix minus Btk enzyme is prepared containing 1× Cell Signaling kinase buffer (25 mM Tris-HCl, pH 7.5, 5 mM beta-glycerophosphate, 2 mM dithiothreitol, 0.1 mM Na3VO4, 10 mM MgCl2), 0.5 μM Promega PTK Biotinylated peptide substrate 2, and 0.01% BSA. A master mix plus Btk enzyme is prepared containing 1× Cell Signaling kinase buffer, 0.5 μM (micromolar) PTK Biotinylated peptide substrate 2, 0.01% BSA, and 100 ng/well (0.06 mU/well) Btk enzyme. Btk enzyme is prepared as follows: full length human wildtype Btk (accession number NM-000061) with a C-terminal V5 and 6×His tag was subcloned into pFastBac® vector (Invitrogen/Life Technologies) for making baculovirus carrying this epitope-tagged Btk. Generation of baculovirus is done based on Invitrogen's instructions detailed in its published protocol “Bac-to-Bac Baculovirus Expression Systems” (Invitrogen/Life Technologies, Cat. Nos. 10359-016 and 10608-016). Passage 3 virus is used to infect Sf9 cells to overexpress the recombinant Btk protein. The Btk protein is then purified to homogeneity using Ni-NTA column. The purity of the final protein preparation is greater than 95% based on the sensitive Sypro-Ruby staining. A solution of 200 μM ATP is prepared in water and adjusted to pH 7.4 with 1N NaOH. A quantity of 1.25 μL (microliter) of compounds in 5% DMSO is transferred to a 96-well 2 area Costar polystyrene plate. Compounds are tested singly and with an 11-point dose-responsive curve (starting concentration is 10 μM; 1:2 dilution). A quantity of 18.75 μL of master mix minus enzyme (as a negative control) and master mix plus enzyme is transferred to appropriate wells in 96-well 2 area costar polystyrene plate. 5 μL of 200 μM ATP is added to that mixture in the 96-well 2 area Costar polystyrene plate for final ATP concentration of 40 μM. The reaction is allowed to incubate for 1 hour at room temperature. The reaction is stopped with Perkin Elmer 1× detection buffer containing 30 mM EDTA, 20 nM SA-APC, and 1 nM PT66 Ab. The plate is read using time-resolved fluorescence with a Perkin Elmer Envision using excitation filter 330 nm, emission filter 665 nm, and 2nd emission filter 615 nm. IC50 values are subsequently calculated. Alternatively, the Lanthascreen assay can be used to evaluate Btk activity through quantification of its phosphorylated peptide product. The FRET (Fluorescence Resonance Energy Transfer) that occurs between the fluorescein on the peptide product and the terbium on the detection antibody decreases with the addition of inhibitors of Btk that reduce the phosphorylation of the peptide. In a final reaction volume of 25 μL (microliters), Btk (h) (0.1 ng/25 μl reaction) is incubated with 50 mM Hepes pH 7.5, 10 mM MgCl2, 2 mM MnCl2, 2 mM DTT, 0.2 mM NaVO4, 0.01% BSA, and 0.4 uM fluorescein poly-GAT. The reaction is initiated by the addition of ATP to 25 μM (micromolar) the Km of ATP. After incubation for 60 minutes at room temperature, the reaction is stopped by the addition of a final concentration of 2 nM Tb-PY20 detection antibody in 60 mM EDTA for 30 minutes at room temperature. Detection is determined on a Perkin Elmer Envision with 340 nm excitation and emission at 495 nm and 520 nm. Exemplary Btk inhibition […] values are in Table 1.

T1 sequence (Q06187 whole entry): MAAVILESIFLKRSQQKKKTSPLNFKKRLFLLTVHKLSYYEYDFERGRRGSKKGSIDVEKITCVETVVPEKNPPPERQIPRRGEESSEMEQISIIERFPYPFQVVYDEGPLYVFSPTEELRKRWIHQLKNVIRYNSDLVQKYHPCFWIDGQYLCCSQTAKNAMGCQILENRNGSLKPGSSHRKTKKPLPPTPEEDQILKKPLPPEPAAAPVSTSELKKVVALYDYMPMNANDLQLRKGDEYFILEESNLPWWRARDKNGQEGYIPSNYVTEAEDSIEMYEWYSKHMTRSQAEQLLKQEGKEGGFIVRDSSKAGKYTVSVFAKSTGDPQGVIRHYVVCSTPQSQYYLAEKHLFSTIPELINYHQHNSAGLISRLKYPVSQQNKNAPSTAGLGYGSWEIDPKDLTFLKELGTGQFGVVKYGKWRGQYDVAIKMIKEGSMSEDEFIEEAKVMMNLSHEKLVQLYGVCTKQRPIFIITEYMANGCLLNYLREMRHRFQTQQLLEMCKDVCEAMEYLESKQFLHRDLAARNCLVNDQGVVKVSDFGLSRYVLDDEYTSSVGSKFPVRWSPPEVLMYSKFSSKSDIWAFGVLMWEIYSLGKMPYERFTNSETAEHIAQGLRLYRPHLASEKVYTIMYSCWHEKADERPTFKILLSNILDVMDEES

Ki [µM]	Structure (SMILES)
0.124	CC1(C)Cc2cc3n(c2C1)CCN(c1nccc(-n2cc(C(N)=O)cn2)c1CO)C3=O [Example 113, 1-[2-(7,7-dimethyl-4-oxo-1,2,6,8-tetrahydrocyclopenta[3,4]pyrrolo[3,5-b]pyrazin-3-yl)-3-(hydroxymethyl)-4-pyridyl]pyrazole-4-carboxamide]
0.184	CC(C)(C)c1cc(F)c2c(=O)n(-c3nccc(-n4cc(C(N)=O)c(-c5ccccc5)n4)c3CO)ncc2c1 [Example 114, 1-[2-(6-tert-butyl-8-fluoro-1-oxo-phthalazin-2-yl)-3-(hydroxymethyl)-4-pyridyl]-3-phenyl-pyrazole-4-carboxamide]
0.0138	CC(=O)Nc1nn(-c2ccnc(N3CCn4c(cc5c4CC(C)(C)C5)C3=O)c2CO)cc1C(N)=O [Example 124, 3-acetamido-1-[2-(7,7-dimethyl-4-oxo-1,2,6,8-tetrahydrocyclopenta[3,4]pyrrolo[3,5-b]pyrazin-3-yl)-3-(hydroxymethyl)-4-pyridyl]pyrazole-4-carboxamide]
0.000296	C[C@H]1CN(C2COC2)CCN1c1ccc(Nc2nn(-c3ccnc(N4CCn5c(cc6c5CC(C)(C)C6)C4=O)c3CO)cc2C(N)=O)nc1 [Example 125, 1-[2-(7,7-dimethyl-4-oxo-1,2,6,8-tetrahydrocyclopenta[3,4]pyrrolo[3,5-b]pyrazin-3-yl)-3-(hydroxymethyl)-4-pyridyl]-3-[[5-[(2S)-2-methyl-4-(oxetan-3-yl)piperazin-1-yl]-2-pyridyl]amino]pyrazole-4-carboxamide]
0.0339	CCCC(=O)Nc1nn(-c2ccnc(N3CCn4c(cc5c4CC(C)(C)C5)C3=O)c2CO)cc1C(N)=O [Example 128, 3-(butanoylamino)-1-[2-(7,7-dimethyl-4-oxo-1,2,6,8-tetrahydrocyclopenta[3,4]pyrrolo[3,5-b]pyrazin-3-yl)-3-(hydroxymethyl)-4-pyridyl]pyrazole-4-carboxamide]
0.104	CC(C)(C)c1cc(F)c2c(=O)n(-c3nccc(-n4cc(C(N)=O)c(-c5cnc(N)cn5)n4)c3CO)ncc2c1 [Example 129, 3-(5-aminopyrazin-2-yl)-1-[2-(6-tert-butyl-8-fluoro-1-oxo-phthalazin-2-yl)-3-(hydroxymethyl)-4-pyridyl]pyrazole-4-carboxamide]
0.0438	CN(C)CCNC(=O)c1cccc(-c2nn(-c3ccnc(-n4ncc5cc(C(C)(C)C)cc(F)c5c4=O)c3CO)cc2C(N)=O)c1 [Example 130, 1-[2-(6-tert-butyl-8-fluoro-1-oxo-phthalazin-2-yl)-3-(hydroxymethyl)-4-pyridyl]-3-[3-[2-(dimethylamino)ethylcarbamoyl]phenyl]pyrazole-4-carboxamide]
0.143	CN1CCN(C(=O)c2ccc(-c3nn(-c4ccnc(-n5ncc6cc(C(C)(C)C)cc(F)c6c5=O)c4CO)cc3C(N)=O)cc2)CC1 [Example 131, 1-[2-(6-tert-butyl-8-fluoro-1-oxo-phthalazin-2-yl)-3-(hydroxymethyl)-4-pyridyl]-3-[4-(4-methylpiperazine-1-carbonyl)phenyl]pyrazole-4-carboxamide]
> 0.5	CC(C)(C)c1cc(F)c2c(=O)n(-c3nccc(-n4cc(C(N)=O)c(-c5cnc6[nH]ccc6c5)n4)c3CO)ncc2c1 [Example 132, 1-[2-(6-tert-butyl-8-fluoro-1-oxo-phthalazin-2-yl)-3-(hydroxymethyl)-4-pyridyl]-3-(1H-pyrrolo[2,3-b]pyridin-5-yl)pyrazole-4-carboxamide]
0.156	CC(C)(C)c1cc(F)c2c(=O)n(-c3nccc(-n4cc(C(N)=O)c(-c5ccc(CN)cc5)n4)c3CO)ncc2c1 [Example 133, 3-[4-(aminomethyl)phenyl]-1-[2-(6-tert-butyl-8-fluoro-1-oxo-phthalazin-2-yl)-3-(hydroxymethyl)-4-pyridyl]pyrazole-4-carboxamide]
0.0269	CC(C)Cn1cc(-c2nn(-c3ccnc(-n4ncc5cc(C(C)(C)C)cc(F)c5c4=O)c3CO)cc2C(N)=O)cn1 [Example 134, 1-[2-(6-tert-butyl-8-fluoro-1-oxo-phthalazin-2-yl)-3-(hydroxymethyl)-4-pyridyl]-3-(1-isobutylpyrazol-4-yl)pyrazole-4-carboxamide]
0.0156	CN1CCN(c2ccc(-c3nn(-c4ccnc(-n5ncc6cc(C(C)(C)C)cc(F)c6c5=O)c4CO)cc3C(N)=O)cn2)CC1 [Example 135, 1-[2-(6-tert-butyl-8-fluoro-1-oxo-phthalazin-2-yl)-3-(hydroxymethyl)-4-pyridyl]-3-[6-(4-methylpiperazin-1-yl)-3-pyridyl]pyrazole-4-carboxamide]
0.0507	CN1CCN(c2cc(-c3nn(-c4ccnc(-n5ncc6cc(C(C)(C)C)cc(F)c6c5=O)c4CO)cc3C(N)=O)ccn2)CC1 [Example 136, 1-[2-(6-tert-butyl-8-fluoro-1-oxo-phthalazin-2-yl)-3-(hydroxymethyl)-4-pyridyl]-3-[2-(4-methylpiperazin-1-yl)-4-pyridyl]pyrazole-4-carboxamide]
0.115	CC(=O)Nc1ccc(-c2nn(-c3ccnc(-n4ncc5cc(C(C)(C)C)cc(F)c5c4=O)c3CO)cc2C(N)=O)cn1 [Example 137, 3-(6-acetamido-3-pyridyl)-1-[2-(6-tert-butyl-8-fluoro-1-oxo-phthalazin-2-yl)-3-(hydroxymethyl)-4-pyridyl]pyrazole-4-carboxamide]
0.0827	CC(C)(C)c1cc(F)c2c(=O)n(-c3nccc(-n4cc(C(N)=O)c(-c5ccc(O)nc5)n4)c3CO)ncc2c1 [Example 138, 1-[2-(6-tert-butyl-8-fluoro-1-oxo-phthalazin-2-yl)-3-(hydroxymethyl)-4-pyridyl]-3-(6-hydroxy-3-pyridyl)pyrazole-4-carboxamide]
> 0.5	CC(C)(C)c1cc(F)c2c(=O)n(-c3nccc(-n4cc(C(N)=O)c(-c5cncc(S(C)(=O)=O)c5)n4)c3CO)ncc2c1 [Example 139, 1-[2-(6-tert-butyl-8-fluoro-1-oxo-phthalazin-2-yl)-3-(hydroxymethyl)-4-pyridyl]-3-(5-methylsulfonyl-3-pyridyl)pyrazole-4-carboxamide]
> 0.5	CC(C)(C)c1cc(F)c2c(=O)n(-c3nccc(-n4cc(C(N)=O)c(-c5cnc6ccccc6c5)n4)c3CO)ncc2c1 [Example 140, 1-[2-(6-tert-butyl-8-fluoro-1-oxo-phthalazin-2-yl)-3-(hydroxymethyl)-4-pyridyl]-3-(3-quinolyl)pyrazole-4-carboxamide]
0.155	CC(C)(C)c1cc(F)c2c(=O)n(-c3nccc(-n4cc(C(N)=O)c(-c5ccc(CO)cc5)n4)c3CO)ncc2c1 [Example 141, 1-[2-(6-tert-butyl-8-fluoro-1-oxo-phthalazin-2-yl)-3-(hydroxymethyl)-4-pyridyl]-3-[4-(hydroxymethyl)phenyl]pyrazole-4-carboxamide]
0.135	CC(C)(C)c1cc(F)c2c(=O)n(-c3nccc(-n4cc(C(N)=O)c(-c5cncnc5)n4)c3CO)ncc2c1 [Example 142, 1-[2-(6-tert-butyl-8-fluoro-1-oxo-phthalazin-2-yl)-3-(hydroxymethyl)-4-pyridyl]-3-pyrimidin-5-yl-pyrazole-4-carboxamide]
0.1	CC(C)(C)c1cc(F)c2c(=O)n(-c3nccc(-n4cc(C(N)=O)c(-c5ccncc5)n4)c3CO)ncc2c1 [Example 143, 1-[2-(6-tert-butyl-8-fluoro-1-oxo-phthalazin-2-yl)-3-(hydroxymethyl)-4-pyridyl]-3-(4-pyridyl)pyrazole-4-carboxamide]
0.124	CC(C)(C)c1cc(F)c2c(=O)n(-c3nccc(-n4cc(C(N)=O)c(-c5cccnc5)n4)c3CO)ncc2c1 [Example 144, 1-[2-(6-tert-butyl-8-fluoro-1-oxo-phthalazin-2-yl)-3-(hydroxymethyl)-4-pyridyl]-3-(3-pyridyl)pyrazole-4-carboxamide]
